Molecules are shown by their SMILES.

Series [1] addresses T1, ENaC (Epithelial Sodium Channel) (Mus musculus, UniProt Q61180+Q9WU38+Q9WU39).
T1 construct: Mouse kidney M-1 cells were cultivated in DMEM containing 5% FCS and 5 μM dexamethasone; endogenous in cells; host or cells: mouse kidney M-1 cells
T1 sequence (Q61180 1-699): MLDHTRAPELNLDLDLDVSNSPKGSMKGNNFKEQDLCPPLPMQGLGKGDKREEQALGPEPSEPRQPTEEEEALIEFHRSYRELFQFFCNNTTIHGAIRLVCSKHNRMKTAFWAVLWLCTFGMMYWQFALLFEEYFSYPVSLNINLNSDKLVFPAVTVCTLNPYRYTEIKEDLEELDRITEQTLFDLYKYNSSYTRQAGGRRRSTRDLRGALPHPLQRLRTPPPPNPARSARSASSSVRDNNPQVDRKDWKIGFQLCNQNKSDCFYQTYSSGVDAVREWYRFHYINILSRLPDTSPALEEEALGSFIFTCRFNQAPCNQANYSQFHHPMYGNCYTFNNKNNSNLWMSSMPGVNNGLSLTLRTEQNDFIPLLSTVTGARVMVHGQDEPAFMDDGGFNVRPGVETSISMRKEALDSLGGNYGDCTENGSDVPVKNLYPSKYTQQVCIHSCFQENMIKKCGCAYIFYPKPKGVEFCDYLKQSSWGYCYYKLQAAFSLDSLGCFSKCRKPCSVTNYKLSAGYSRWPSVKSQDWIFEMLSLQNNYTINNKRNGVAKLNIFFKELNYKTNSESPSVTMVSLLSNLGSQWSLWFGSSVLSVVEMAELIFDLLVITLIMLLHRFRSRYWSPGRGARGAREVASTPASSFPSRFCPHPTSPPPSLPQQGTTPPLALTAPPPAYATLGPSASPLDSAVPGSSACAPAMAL
T1 sequence (Q9WU38 1-638): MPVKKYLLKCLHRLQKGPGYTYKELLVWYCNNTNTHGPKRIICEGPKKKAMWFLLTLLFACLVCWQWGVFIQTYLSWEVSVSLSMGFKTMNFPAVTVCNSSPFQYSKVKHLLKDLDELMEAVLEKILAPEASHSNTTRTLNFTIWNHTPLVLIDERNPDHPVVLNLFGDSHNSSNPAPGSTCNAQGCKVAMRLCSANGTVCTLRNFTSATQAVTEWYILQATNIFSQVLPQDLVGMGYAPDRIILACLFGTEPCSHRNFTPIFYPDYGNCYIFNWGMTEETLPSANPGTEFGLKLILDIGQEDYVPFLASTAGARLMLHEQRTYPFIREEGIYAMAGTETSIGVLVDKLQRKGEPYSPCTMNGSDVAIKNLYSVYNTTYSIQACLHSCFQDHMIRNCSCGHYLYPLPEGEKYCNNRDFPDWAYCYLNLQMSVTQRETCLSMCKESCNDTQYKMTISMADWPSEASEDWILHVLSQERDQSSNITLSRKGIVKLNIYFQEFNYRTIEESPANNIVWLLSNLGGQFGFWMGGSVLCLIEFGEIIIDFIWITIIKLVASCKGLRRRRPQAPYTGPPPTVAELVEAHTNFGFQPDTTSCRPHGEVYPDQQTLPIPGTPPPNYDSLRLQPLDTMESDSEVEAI
T1 sequence (Q9WU39 1-655): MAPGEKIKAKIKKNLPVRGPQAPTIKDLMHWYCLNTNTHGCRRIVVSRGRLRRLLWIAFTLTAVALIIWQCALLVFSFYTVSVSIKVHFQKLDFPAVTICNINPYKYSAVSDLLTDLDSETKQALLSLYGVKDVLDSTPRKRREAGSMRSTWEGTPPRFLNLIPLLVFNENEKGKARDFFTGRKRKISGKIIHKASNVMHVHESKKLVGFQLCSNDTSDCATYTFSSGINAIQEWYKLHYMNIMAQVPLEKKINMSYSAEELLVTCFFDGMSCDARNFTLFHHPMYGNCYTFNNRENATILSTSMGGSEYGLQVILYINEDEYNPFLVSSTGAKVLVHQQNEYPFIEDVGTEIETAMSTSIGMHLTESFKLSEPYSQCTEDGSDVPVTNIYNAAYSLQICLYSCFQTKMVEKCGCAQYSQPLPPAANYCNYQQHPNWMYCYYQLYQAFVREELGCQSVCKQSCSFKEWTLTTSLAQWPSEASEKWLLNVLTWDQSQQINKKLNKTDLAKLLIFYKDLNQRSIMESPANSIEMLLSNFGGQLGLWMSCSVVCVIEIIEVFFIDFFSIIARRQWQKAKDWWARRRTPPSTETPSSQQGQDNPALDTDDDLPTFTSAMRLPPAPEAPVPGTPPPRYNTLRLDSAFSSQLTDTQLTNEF
Nature of the series: Ussing Chamber assay: inhibition of amiloride sensitive short circuit current in M-1 cells. The series is classed as cell-based. The note with it: Mouse kidney M-1 cells on transwell filters, compound added to apical solution, 37° C. As for the experimental part:
Mouse kidney M-1 cells were cultivated in DMEM containing 5% FCS and 5 μM dexamethasone for 10 to 12 days on polyester transwell filters. Filters were inserted into a teflon-coated well-plate which fit into the ussing chamber system. Prior to measurement the medium of M-1 cells was replaced with Caco-2 transport buffer (Invitrogen, Germany). During measurements, the Ussing chamber temperature was kept at 37° C. Short circuit currents (I_sc) were measured in the voltage-clamp mode with the software package Lab View for data acquisition and analysis. The transepithelial electrical resistance (TEER) was determined by the application of voltage steps of ±5 mV every 5 sec. Compounds were administered at a final concentration of 3 μM or at increasing concentrations (1-3-10 μM) to the apical solution. At the end of each experiment the amiloride sensitive I_SC was measured by adding 3 μM amiloride to the apical compartment. Results are expressed as inhibition in percent of the amiloride effect or as IC50.
With the example compounds given above, the following IC50 values were determined in the Ussing Chamber assay: […]

Series [2] in a line: Permeability in CALU-3 cells. The series is classed as in vitro ADME. The note with it: human, CALU-3 cell monolayers, pH 7.4, 37° C., 10 μM compound; for Papp A→B at 90 min, 10 μM: apical-to-basal; for Papp B→A at 90 min, 10 μM: basal-to-apical. As to the method: Permeability in CALU-3 Cells:
Permeability measurements across polarized, confluent CALU-3 cell monolayers grown on permeable filter supports are used to provide information on the potential of a compound to pass the lung epithelium. Apparent permeability coefficients (Papp) of the compounds across the CALU-3 cell monolayers are measured (pH 7.4, 37° C.) in apical-to-basal (AB) and basal-to-apical (BA) transport direction.
CALU-3 cells (1-2×10^5 cells/1 cm^2 area) are seeded on filter inserts (Costar transwell polycarbonate filters, 0.4 μm pore size) and cultured (for 10-12 days DMEM) until tight monolayers are formed. Compounds of interest are dissolved in appropriate solvent (DMSO, 10 mM stock solution). Stock solutions are diluted with HTP-4 buffer (128.13 mM NaCl, 5.36 mM KCl, 1 mM MgSO4, 1.8 mM CaCl2, 4.17 mM NaHCO3, 1.19 mM Na2HPO4×7H2O, 0.41 mM NaH2PO4×H2O, 15 mM HEPES, 20 mM glucose, 0.25% BSA, pH 7.4) to prepare the transport solutions (10 μM compound, final DMSO<=0.5%). The transport solution (TL) is applied to the apical or basolateral donor side for measuring A-B or B-A permeability (3 filter replicates), respectively. The receiver side contains the same buffer as the donor side. After 30 min of accommodation, samples are collected at the start t0=0 min and at the end of the experiment tn=90 min from the donor and at 0, 30, 60, and 90 min also from the receiver chamber. Volume removed is replenished by HTP-4 buffer. The compound concentration in the samples is measured by HPLC-MS/MS or scintillation counting. The permeability coefficient (Papp) and efflux ratio are calculated according to: Papp [cm/s]=(concentration receiver [nM]*volume receiver [mL]/time interval [sec])*(1/filter area)*(1/donor concentration [nM])
With example compounds given above, the following permeability values were determined in the CALU-3 cells assay: […]

As to `CCn1c(CNC(=O)c2nc(Cl)c(N)nc2N)[n+](CC2CCOCC2)c2cc(Cl)c(N(CCO)CCO)cc21` [Example 1.1], the IC50 (commonly the concentration needed to halve the response being measured) in series [1] is 13 nM.

In series [1], `CCn1c(CNC(=O)c2nc(Cl)c(N)nc2N)[n+](CCOCCOCCO)c2ccc(O)cc21` [Example 1.2] yielded an IC50 of 1 nM. Moreover, in series [2], the Papp A→B (usually how fast a substance crosses the layer from the apical side) at 90 min, 10 μM was 0.5 ×10⁻⁶ cm/s and the Papp B→A – broadly, the apparent permeability from the basolateral to the apical side of a cell layer – at 90 min, 10 μM is 0.3 ×10⁻⁶ cm/s. In turn, `CCn1c(CNC(=O)c2nc(Br)c(N)nc2N)[n+](CCOCCOCCO)c2ccc(O)cc21.O=C([O-])C(F)(F)F` [Example 2.1] returned an IC50 in series [1] of 1 nM. In series [2], the Papp A→B at 90 min, 10 μM came out at 1.3 ×10⁻⁶ cm/s and the Papp B→A at 90 min, 10 μM amounted to 0.2 ×10⁻⁶ cm/s. In series [1], `C=CC[n+]1c(CNC(=O)c2nc(Br)c(N)nc2N)n(CC)c2cc(OCCCP(=O)(OCC)OCC)ccc21` [Example 2.2] came in with an IC50 of 2 nM. That is a single-digit nanomolar value. `CCNC(=O)COc1ccc2c(c1)n(C1CCN(C(C)=O)CC1)c(CNC(=O)c1nc(Cl)c(N)nc1N)[n+]2CC` [Example 3.1] gave an IC50 in series [1] of 10 nM.

Compound `CCn1c(CNC(=O)c2nc(Cl)c(N)nc2N)[n+](CCCC#N)c2ccc(OCCCP(=O)(O)O)cc21` [Example 4.1] yielded an IC50 in series [1] of 31 nM. The same measure, in the same setting: in the case of `CCOP(=O)(O)CCCOc1ccc2c(c1)n(CC)c(CNC(=O)c1nc(Cl)c(N)nc1N)[n+]2CC1CCOCC1` [Example 5.1] it was 8 nM; in that of `CC[n+]1c(CNC(=O)c2nc(Cl)c(N)nc2N)n(CC2CCN(C(=O)COCCOC)CC2)c2cc([O-])ccc21` [Example 6.1], 3 nM.

Source of the values: patent US9126985B2, “Tetra- and pentasubstituted benzimidazolium compounds” (Boehringer Ingelheim International GmbH, priority 2013, dated 2015).
